This note sets out measurements from patent publication US10604489B2, “Compounds for the treatment of pain” (priority 2018, dated 2020).

The target in series [1] is T1, μ-receptor (Homo sapiens (Human), UniProt P35372). Put plainly: Alternate receptor binding assay, competitive displacement of [3H]DAMGO. The note with it: alternate assay: 0.8 nM [3H]DAMGO, 5 mM MgCl2, CHO cell membrane protein, 120 min. A general note: Loss of bound radioactivity is the signal in a displacement assay; it reports binding, not function.
The target of series [2] is T2, human μ opioid receptor (Homo sapiens (Human), UniProt P35372). The series can be described thus: Alternate functional activity ([35S]GTPγS binding) assay, SPA beads. The format is biochemical. The note with it: alternate assay: [35S]GTPγS 0.020 nM, CHO cell membranes with WGA PVT SPA beads. Here is the method: The [^35S]GTPγS assay measures the functional properties of a compound by quantifying the level of G-protein activation following agonist binding in studies using stably transfected cells, and is considered to be a measure of the efficacy of a compound. Membranes from CHO (Chinese Hamster Ovary) cells that stably expressed one type of the cloned human opioid receptor human were used in the experiments. The assay buffer consisted of 50 mM Tris-HCl, pH 7.4, 3 mM MgCl2, 0.2 mM EGTA, 5 μM GDP, and 100 mM NaCl. CHO cell membranes stably expressing the human p opioid receptor were pre-incubated with scintillation proximity assay beads from PerkinElmer® (WGA PVT SPA) for 30 minutes, at 8 µg membrane and […] beads in a volume of 0.1 mL per reaction. In a final volume of 0.2 mL, 11 different concentrations of each test compound were incubated with the membrane-SPA bead mixture and a final concentration of 0.020 nM [35S]GTPγS for 1.5 hours with gentle shaking. Reactions were then incubated for 5 hours. Data are the mean EC50 values ±S.E.M. EC50 values (nM) for compounds 12, 16, 19, 20, 149, 151, 152, 157, 160, 161, 164-169, 172, 173, 180-197, and 199-207 are shown in Table 1.
A general note: GTPγS is a poorly hydrolysed GTP analogue; its binding reports G protein activation.

For series [3], the system named is Male Sprague-Dawley rats. Particulars: maximum pCO2 within 2 hours of administration, rat.
Series [4] relates to Male Sprague-Dawley rats. Put plainly: animal or person. Format: in vivo, rat. The note with it: rat, read-out: MEMD SC CFA.
Series [5] concerns the target T1, μ-receptor. Put plainly: Receptor binding, competitive displacement of [3H]DAMGO. Particulars: 0.25 nM [3H]DAMGO, CHO cell membrane protein, 60 min at 25° C. The method in brief: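 Ki derived via Cheng-Prusoff from IC50 (log-probit fit) of displacement of 0.25 nM [3H]DAMGO, 12 concentrations, from human μ-receptor in CHO cell membranes. Binding: 50 mM Tris-HCl pH 7.5, 25 °C, 60 min, 10 μM naloxone defining nonspecific, filter-bound radioactivity counted.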

Series [6] has as its target T2, human μ opioid receptor. Put plainly: Functional activity ([35S]GTPγS binding). The format is biochemical. Particulars: [35S]GTPγS 0.080 nM, CHO cell membranes, 60 min at 30° C., filtration. The essentials: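 Membranes from stably transfected CHO cells (7.5 μg) incubated with 12 test-compound concentrations and 0.080 nM [35S]GTPγS in 50 mM Tris-HCl pH 7.4, 3 mM MgCl2, 0.2 mM EGTA, 3 μM GDP, 100 mM NaCl, 60 min at 30° C. Nonspecific binding defined with 10 μM GTPγS; bound label collected by filtration and scintillation counting.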

The structures appear in SMILES notation. Counter-ions that a name gives are not always drawn. Like-named read-outs stand apart in the source and are kept apart here.

In general, Ki refers to the dissociation constant of the complex between target and ligand, obtained from inhibition or displacement. Low values mean tighter binding, high ones weaker binding. The term EC50 denotes the concentration needed to bring the measured effect to its halfway point. A low value points to an effect from little substance. `COC1(c2cccc(C(N)=O)c2)C2CCCC1CN(C1CCC(F)(F)CC1)C2` (centres unmarked) [Compound 196]: the Ki in series [1] is less than 1 nM. In series [2], the EC50 was 10 to 75 nM.
The compound `COC1(c2cccc(C(N)=O)c2)C2CCCC1CN(C1CC3CCC(C1)O3)C2` (single isomer, unassigned) [Compound 16, hydrochloride] showed a Ki in series [1] of less than 1 nM. The compound also came in with an EC50 in series [2] of less than 10 nM.
Compound `COC1(c2ccnc(C(N)=O)c2)C2CCCC1CN(C1CCC(F)(F)CC1)C2` (centres unmarked) [Compound 195] registered a Ki in series [1] of 1 to 5 nM. In series [2], this compound had an EC50 greater than 75 nM.
Turning to `CCOC1(c2ccc(F)c(C(N)=O)c2)C2CCCC1CNC2` (centres unmarked) [Compound 183], the Ki in series [1] is greater than 5 nM. For the same compound, the EC50 in series [2] was greater than 75 nM.
In turn, `NC(=O)c1cccc(C2(OCCF)C3CCCC2CNC3)c1` (centres unmarked) [Compound 187] gave a Ki in series [1] greater than 5 nM. In addition, the EC50 in series [2] was 10 to 75 nM.
On to `COC1(c2cccc(C(N)=O)c2)C2CCCC1CN(C1C[C@@H]3C[C@@H]3C1)C2` (some centres unmarked) [Compound 199], for which the Ki in series [1] was less than 1 nM. The EC50 in series [2] was less than 10 nM.
For `COC1(c2cccc(C(N)=O)c2)C2CCCC1CN([C@H](C)c1cnc[nH]1)C2` (stereo partly drawn) [Compound 20, 3-((1R,5S,9R)-3-((R)-1-(1H-imidazol-5-yl)ethyl)-9-methoxy-3-azabicyclo[3.3.1]nonan-9-yl)benzamide hydrochloride] the same measures were 1 to 5 nM and 10 to 75 nM.
Compound `COC1(c2cccc(C(N)=O)c2)C2CCCC1CN([C@@H](C)c1cnc[nH]1)C2` (stereo partly drawn) [Compound 19, 3-((1R,5S,9S)-3-((S)-1-(1H-imidazol-5-yl)ethyl)-9-methoxy-3-azabicyclo[3.3.1]nonan-9-yl)benzamide hydrochloride] returned a Ki in series [1] of less than 1 nM. Besides, the EC50 in series [2] is less than 10 nM.
For `COC1(c2cccc(C(N)=O)c2)C2CCCC1CN([C@H]1C[C@@H]3[C@H](C1)C3(F)F)C2` (some centres unmarked) [Compound 200], the Ki in series [1] is less than 1 nM. For the same compound, the EC50 in series [2] is less than 10 nM.
As to `NC(=O)c1cccc(C2(OCC(F)F)C3CCCC2CNC3)c1` (centres unmarked) [Compound 182], the Ki in series [1] is greater than 5 nM. This compound returned an EC50 in series [2] of 10 to 75 nM.
Regarding `COC1(c2ccnc(C(N)=O)c2)C2CCCC1CN(CC1(F)CCOCC1)C2` (centres unmarked) [Compound 198], the Ki in series [1] is greater than 5 nM.
Turning to `COC1(c2ccnc(C(N)=O)c2)C2CCCC1CN([C@H]1C[C@@H]3[C@H](C1)C3(F)F)C2` (some centres unmarked) [Compound 197], the Ki in series [1] was less than 1 nM. Also, in series [2], the EC50 is less than 10 nM.
In series [1], `COC1(c2cccc(C(N)=O)c2)C2CCCC1CN(C1CN(c3ccccc3)C1)C2` [Compound 151, 3-((1R,5S,9r)-9-methoxy-3-(1-phenylazetidin-3-yl)-3-azabicyclo[3.3.1]nonan-9-yl)benzamide (S)-2-hydroxysuccinate] showed a Ki of less than 1 nM. The EC50 in series [2] is less than 10 nM.
The compound `COC1(c2ccnc(C(N)=O)c2)C2CCCC1CN(C1CC3CCC(C1)O3)C2` (centres unmarked) [Compound 202] gave a Ki in series [1] greater than 5 nM. Besides, the EC50 in series [2] is greater than 75 nM.
`CCOC1(c2cc(C(N)=O)ccc2Cl)C2CCCC1CNC2` (centres unmarked) [Compound 188] had a Ki in series [1] greater than 5 nM. For the same compound, in series [2], the EC50 was greater than 75 nM.
`COC1(c2cccc(C(N)=O)c2)C2CCCC1CN(C1CC3CCC(C1)O3)C2` (centres unmarked) [Compound 203] displayed a Ki in series [1] of 1 to 5 nM. Besides, in series [2], the EC50 was greater than 75 nM.
In series [1], `CCOC1(c2cccc(C(N)=O)c2)C2CCCC1CNC2.Cl` [Compound 160, 3-((1R,5S,9r)-9-ethoxy-3-azabicyclo[3.3.1]nonan-9-yl)benzamide] yielded a Ki of 1 to 5 nM. The “<60 mmHg @ 10X CFA MEMD” value in series [3] (dose 10× CFA MEMD, subcutaneous) is “+ (resulted in a maximum pCO2 value of less than 60 mmHg within 2 hours of administration)”. The “<60 mmHg @ 100X CFA MEMD” value in series [3] (dose 100× CFA MEMD, subcutaneous) is given as “+ (resulted in a maximum pCO2 value of less than 60 mmHg within 2 hours of administration)”. The same compound displayed an EC50 in series [2] of 10 to 75 nM. Moreover, the minimal effective dose in series [4] (sc, minimum dose at which maximal reversal of hind paw weight bearing (50±0.5%) was achieved, subcutaneous administration) turned out to be 0.1 mg/kg.
For the compound `CCOC1(c2cccc(C(N)=O)c2F)C2CCCC1CNC2` (centres unmarked) [Compound 180], the Ki in series [1] is greater than 5 nM. In series [2], this compound had an EC50 greater than 75 nM.
The compound `COC1(c2ccnc(C(N)=O)c2)C2CCCC1CN(C1CC3CCC(C1)O3)C2` [Compound 12, 4-((1R,5S,9R)-3-((1R,3s,5S)-8-oxabicyclo[3.2.1]octan-3-yl)-9-methoxy-3-azabicyclo[3.3.1]nonan-9-yl)picolinamide hydrochloride] displayed a Ki in series [1] (hydrochloride) of less than 1 nM. This compound also registered an EC50 in series [2] of 10 to 75 nM.
Consider `COC1(c2cccc(C(N)=O)c2)C2CCCC1CN(CCCF)C2` [Compound 157, 3-((1R,5S,9r)-3-(3-fluoropropyl)-9-methoxy-3-azabicyclo[3.3.1]nonan-9-yl)benzamide hydrochloride], for which, in series [1], the Ki is less than 1 nM. In series [2], this compound displayed an EC50 of 10 to 75 nM.
In series [5], `CCCN1CC2CCCC(C1)C2(OC)c1ccnc(C(N)=O)c1.Cl` [Compound 91, 4-((1R,5S,9r)-9-methoxy-3-propyl-3-azabicyclo[3.3.1]nonan-9-yl)picolinamide hydrochloride] had a Ki of 1 to 5 nM. In series [6], this compound registered an EC50 of 10 to 75 nM. Besides, the “<60 mmHg @ 100X CFA MEMD” value in series [3] (dosed at 10 mg/kg) is reported as “+ (dosed at 10 mg/kg) (resulted in a maximum pCO2 value of less than 60 mmHg within 2 hours of administration)”. Further, the minimal effective dose in series [4] (po, minimum dose at which maximal reversal of hind paw weight bearing was achieved, dosed orally) amounted to 3 mg/kg.
Consider `COC1(c2cccc(C(N)=O)c2)C2CCCC1CN(Cc1cnc(C)[nH]1)C2` [Compound 149, 3-((1R,5S,9r)-9-methoxy-34(2-methyl-1H-imidazol-4-yl)methyl)-3-azabicyclo[3.3.1]nonan-9-yl)benzamide hydrochloride], for which the Ki in series [1] is less than 1 nM. Also, the concentration for a half-maximal effect (EC50) in series [2] is less than 10 nM.
Turning to `COC1(c2cccc(C(N)=O)c2)C2CCCC1CN(C[C@H]1C[C@@H]3C[C@@H]3C1)C2` (stereo partly drawn) [Compound 152, 3-((1R,5s,9R)-3-((1R,3s,5S)-bicyclo[3.1.0]hexan-3-ylmethyl)-9-methoxy-3-azabicyclo[3.3.1]nonan-9-yl)benzamide hydrochloride], in series [1], the Ki is less than 1 nM. This compound also displayed an EC50 in series [2] of less than 10 nM.
